Values quoted from earlier work as cited in patent publication US20090156634A1, “Tropane alkaloids and trigonelline combinations and methods for administering the same” (priority 2007, published 2009).
Counter-ions that a name gives are not always drawn.

Columns and labels:
[1] = system: dendrites and axons; details: mice models of Alzheimer's disease
[2] = system: rat cultured sensory neurons; details: attributed to inhibition of potassium channels
[3] = system: central nervous system; details: orally administered to rats
[4] = system: diaphragm; details: rats, low-dose

SMILES | effect on dendrites and axons [1] | excitability of the rat dorsal gangliae [2] | central nervous system effect [3] | effect on diaphragm fatigue [4]
C[n+]1cccc(C(=O)[O-])c1 [trigonelline, 3-carboxy-1-methyl-pyridinum inner salt] | induce regenerative effects in dendrites and axons | increases the excitability | central nervous system stimulating effects | –
NCCc1ccc(O)c(O)c1 [dopamine] | – | – | – | can prevent and/or reverse diaphragm fatigue
